Measurements as given in patent US20260374766A1, “METHODS FOR TREATING CANCER” (Antares Therapeutics, Inc., priority 2022, published 2026).
Where a name gives a salt, the structure may show the parent alone.

What was measured:
[1] = molecular target: T1, p53 Y220C mutant protein (amino acid residues 94-293) (Homo sapiens, UniProt P04637, Y220C); assay: Thermal Shift Assay (TSA), dTM; assay type: binding; conditions: thermal shift; for ΔTm at 100 µM: 100 uM compound, read-out: TSA P53 Y220C dTM (100 uM)
T1 construct: p53 Y220C mutant protein (amino acid residues 94-293)
Method: Thermal Shift Assay (TSA) Protocol
5 μM recombinant p53 Y220C mutant protein (amino acid residues 94-293) was incubated with 10 μM or 100 μM compound for 3 hours at 20 °C in buffer containing 20 mM HEPES, pH7.4, 100 mM NaCl, 0.01% Pluronic F-127, and 1% DMSO in the presence of 400-fold diluted Sypro Orange (ThermoFisher Scientific catalog number 4461146), on a 384-well PCR plate (Applied Biosystems catalog number 4483285). The volume was 5 μL/well. The sealed plate was then loaded onto a QuantStudio 7 Flex instrument for melting temperature (TM) measurement. The temperature was increased from 30 °C to […], at a rate of 0.03 °C/second. Data were fit into a Boltzmann two-state model to determine the TM.

p53 Y220C = p53 Y220C (Homo sapiens, UniProt P04637, Y220C); assay: Luciferase Reporter Assay (Luc), p53 response element, NClH1299 cells with inducible p53 Y220C; assay type: cell-based; conditions: luciferase reporter, NClH1299 inducible p53 Y220C, 6 hour; for Emax: 10 uM tool compound as positive control; for AC50: read-out: Luc P53 Y220C AC50
Procedure, shortened: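 Cells were seeded at 5,000 per well and induced with 0.5 ug/mL doxycycline for 24 hours, then exposed to compound for 6 hours. One-Glo reagent was added, plates shaken 5 minutes at room temperature, and luminescence read immediately.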

NUGC3 p53 Y220C = assay: Cell Proliferation Assay (CellTiter-Glo, CTG), NUGC3 p53 Y220C; assay type: cell-based; conditions: Homo sapiens, NUGC-3, 120 h, CellTiter-Glo, NUGC3 p53 Y220C, 5 days
Procedure, shortened: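 NClH1299 lines stably transduced with Tet-inducible p53 Y220C or R273H, plus NUGC3, were treated with compound for 5 days at 250-500 cells/well. IC50 derived from CellTiter-Glo luminescent signal after 10 min room-temperature incubation.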

H1299 p53 Y220C = assay: Cell Proliferation Assay (CellTiter-Glo, CTG), H1299 p53 Y220C (NClH1299-inducible p53 Y220C); assay type: cell-based; conditions: Homo sapiens, NCI-H1299, 120 h, CellTiter-Glo, H1299 p53 Y220C, 5 days
Procedure, shortened: (§1)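 Cells seeded at 250-500 per well and exposed to compound for 5 days. Viability read by CellTiter-Glo luminescence after 10 min at room temperature; IC50 calculated. H1299 lines carry Tet-One inducible p53 mutant constructs introduced by lentiviral transduction.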

H1299 p53 R273H = assay: Cell Proliferation Assay (CellTiter-Glo, CTG), H1299 p53 R273H (NClH1299-inducible p53 R273H); assay type: cell-based; conditions: Homo sapiens, NCI-H1299, 120 h, CellTiter-Glo, H1299 p53 R273H, 5 days
Procedure, shortened: as §1

[2] = molecular target: T1, p53 Y220C mutant protein (amino acid residues 94-293); assay: Surface Plasmon Resonance (SPR) assay, Kd_kinetic; assay type: binding; conditions: SPR, kinetic KD, p53 Y220C; read-out: SPR P53 Y220C KD kinetic
Procedure, shortened: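 Binding measured by SPR on a Biacore 8K in running buffer of 50 mM Tris pH 7.5, 100 mM NaCl, 1 mM DTT, 0.01% Brij35, 0.05% Tween-20, 1% DMSO.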

SMILES	ΔTm at 100 µM [1] [°C]	Emax (p53 Y220C) [%]	AC50 (p53 Y220C) [µM]	IC50 (NUGC3 p53 Y220C) [µM]	IC50 (H1299 p53 Y220C) [µM]	IC50 (H1299 p53 R273H) [µM]	Kd [2] [µM]	ΔTm at 10 µM ([1]; 10 uM compound, read-out: TSA P53 Y220C dTM (10 uM)) [°C]
COc1cc(S(C)(=O)=O)ccc1NCC#Cc1nc2c(NC3CCN(C(C)=O)CC3)cccn2c1CC(F)(F)F [Example 10, 1-{4-[(2-{3-[(4-methanesulfonyl-2-methoxyphenyl)amino]prop-1-yn-1-yl}-3-(2,2,2-trifluoroethyl)imidazo[1,2-a]pyridin-8-yl)amino]piperidin-1-yl}ethanone]	5 to 10	80 to 90	> 3	> 3	1.5 to 3	≥ 10		
C=C(C)C(=O)Nc1cc(NC2CCN(C)CC2)c2nc(C#CCNc3ccc(C(=O)NC)cc3OC)c(CC(F)(F)F)n2c1 [Example 13, 3-methoxy-N-methyl-4-[(3-{8-[(1-methylpiperidin-4-yl)amino]-6-(2-methylprop-2-enamido)-3-(2,2,2-trifluoroethyl)imidazo[1,2-a]pyridin-2-yl}prop-2-yn-1-yl)amino]benzamide, formic acid salt]	1 to 5	< 70		> 3	> 3	≥ 10		
CC#Cc1nc2c(N[C@@H]3CCN(C)C[C@@H]3F)cccn2c1CC(F)(F)F [Example 18, (3S,4R)-3-fluoro-1-methyl-N-[2-(prop-1-yn-1-yl)-3-(2,2,2-trifluoroethyl)imidazo[1,2-a]pyridin-8-yl]piperidin-4-amine]	5 to 10	< 70	> 3		> 3	≥ 10	0.01 to 0.1	
CC#Cc1nc2c(NC3CCN(C)CC3)cccn2c1CC(F)(F)F [Example 19, 1-methyl-N-[2-(prop-1-yn-1-yl)-3-(2,2,2-trifluoroethyl)imidazo[1,2-a]pyridin-8-yl]piperidin-4-amine]	5 to 10	< 70	> 3		> 3	≥ 10	0.1 to 1	
C=CC(=O)Nc1c(C#CCNc2ccc(C(=O)NC)cc2OC)nc2c(N[C@@H]3CCN(C)C[C@@H]3F)cccn12 [Example 23, 4-{[3-(8-{[(3S,4R)-3-fluoro-1-methylpiperidin-4-yl]amino}-3-(prop-2-enamido)imidazo[1,2-a]pyridin-2-yl)prop-2-yn-1-yl]amino}-3-methoxy-N-methylbenzamide]	5 to 10	< 70	> 3	> 3	> 3	≥ 10		
C=CC(=O)N(C)c1c(C#CCNc2ccc(C(=O)NC)cc2OC)nc2c(N[C@@H]3CCN(C)C[C@@H]3F)cccn12 [Example 26, 4-{[3-(8-{[(3S,4R)-3-fluoro-1-methylpiperidin-4-yl]amino}-3-(N-methylprop-2-enamido)imidazo[1,2-a]pyridine-2-yl)prop-2-yn-1-yl]amino}-3-methoxy-N-methylbenzamide]	5 to 10	< 70	> 3	> 3	> 3	≥ 10		
COc1cc(S(C)(=O)=O)ccc1NCC#Cc1nc2c(NC3CCN(C)CC3)cc(O)cn2c1CC(F)(F)F [Example 27, 2-{3-[(4-methanesulfonyl-2-methoxyphenyl)amino]prop-1-yn-1-yl}-8-[(1-methylpiperidin-4-yl)amino]-3-(2,2,2-trifluoroethyl)imidazo[1,2-a]pyridin-6-ol, TFA salt]	5 to 10	< 70	> 3	> 3	> 3	≥ 10		
CNC(=O)c1ccc(NCC#Cc2nc3c(N[C@@H]4CCN(C)C[C@@H]4F)cccn3c2SC(F)(F)F)c(OC)c1 [Example 28, 4-{[3-(8-{[(3S,4R)-3-fluoro-1-methylpiperidin-4-yl]amino}-3-[(trifluoromethyl)sulfanyl]imidazo[1,2-a]pyridin-2-yl)prop-2-yn-1-yl]amino}-3-methoxy-N-methylbenzamide, formic acid salt]	≥ 10	80 to 90	< 0.75	< 0.75	< 0.75	8 to 10		≥ 10
COc1cc(S(C)(=O)=O)ccc1NCC#Cc1nc2c(NC3CCN(C)CC3)cc(-c3ccccc3)cn2c1CC(F)(F)F [Example 34, N-(2-{3-[(4-methanesulfonyl-2-methoxyphenyl)amino]prop-1-yn-1-yl}-6-phenyl-3-(2,2,2-trifluoroethyl)imidazo [1,2-a]pyridin-8-yl)-1-methylpiperidin-4-amine, formic acid salt]	1 to 5	< 70	> 3	1.5 to 3	1.5 to 3	< 5		
CNC(=O)c1ccc(NCC#Cc2nc3c(NC4CCN(C)CC4)cc(NC(C)=O)cn3c2CC(F)(F)F)c(OC)c1 [Example 41, 4-[(3-{6-acetamido-8-[(1-methylpiperidin-4-yl)amino]-3-(2,2,2-trifluoroethyl)imidazo[1,2-a]pyridin-2-yl}prop-2-yn-1-yl)amino]-3-methoxy-N-methylbenzamide]	1 to 5	< 70	> 3	> 3	> 3	≥ 10		
C=CC(=O)Nc1cc(NC2CCN(C)CC2)c2nc(C#CCNc3ccc(C(=O)NC)cc3OC)c(CC(F)(F)F)n2c1 [Example 42, 3-methoxy-N-methyl-4-[(3-{8-[(1-methylpiperidin-4-yl)amino]-6-(prop-2-enamido)-3-(2,2,2-trifluoroethyl)imidazo[1,2-a]pyridin-2-yl}prop-2-yn-1-yl)amino]benzamide]	< 1	< 70	> 3	> 3	> 3	≥ 10		
CNC(=O)c1ccc(NCC#Cc2nc3c(NC4CCN(C)CC4)cc(NC(=O)C(F)Cl)cn3c2CC(F)(F)F)c(OC)c1 (stereo not drawn) [Example 43, 4-((3-[6-(2-chloro-2-fluoroacetamido)-8-[(1-methylpiperidin-4-yl)amino]-3-(2,2,2-trifluoroethyl)imidazo[1,2-a]pyridin-2-yl]prop-2-yn-1-ylamino)-3-methoxy-N-methylbenzamide, formic acid salt]	1 to 5	< 70	> 3	> 3	> 3	≥ 10		
CNC(=O)c1ccc(NCC#Cc2nc3c(NC4CCN(C)CC4)cc(NC(=O)OC)cn3c2CC(F)(F)F)c(OC)c1 [Example 45, methyl N-[2-(3-{[2-methoxy-4-(methylcarbamoyl)phenyl]amino}prop-1-yn-1-yl)-8-[(1-methylpiperidin-4-yl)amino]-3-(2,2,2-trifluoroethyl)imidazo[1,2-a]pyridin-6-yl]carbamate]	1 to 5	< 70	> 3	> 3	> 3	≥ 10		
